For 59 compounds, chemical recovery results are on record in the supplement of paper PMC10702517.

± gives the standard deviation.

A short description of this data set: chemical recovery from spiked human plasma; higher = better extraction. Conditions: pooled human plasma.
Where [1] appears, read: extraction method: SPE only (HLB 96-well).
The mark [2] stands for this setting: extraction method: solvent precipitation (ACN + hexane).
The mark [3] stands for this setting: extraction method: PES+SPE (3 d PDMS equilibration then HLB SPE).
Setting [4] is: extraction method: SPE only (HLB 96-well), PES comparison experiment.

`O=S(=O)(O)CCC(F)(F)C(F)(F)C(F)(F)C(F)(F)C(F)(F)C(F)(F)C(F)(F)C(F)(F)F` [8.2-Fluorotelomersulfonic-acid]: the chemical recovery under setting [1] was determined as 34 ± 2.1%.
In the case of `Cc1ccc2c(c1)c1cccc3ccc4cccc2c4c31` [10-Methylbenzo[e]pyrene], the chemical recovery under setting [1] worked out at 0.0979 ± 0.085% and the chemical recovery under setting [2] was 10.9 ± 1.3%.
Consider `C[N+](C)(C)CC(O)CCl` (centres undefined) [(3-Chloro-2-hydroxypropyl)trimethylammonium], for which the chemical recovery is, setting by setting: under setting [3], 0.458 ± 0.03%; under setting [1], 1.05 ± 0.96%; under setting [4], 9.57 ± 8%.
Regarding `O=C(O)Cc1ccc(S(=O)(=O)O)cc1` [(4-Sulfophenyl)acetic acid], the chemical recovery under setting [4] came out at 6.28 ± 4%.
Consider `Oc1cc(O)c2c(c1)O[C@H](c1ccc(O)c(O)c1)[C@H](O)C2` [(-)-Epicatechin], for which the chemical recovery was 1.62 ± 1.1% under setting [3] and 10.4 ± 5.1% under setting [1].
Turning to `CC1NC(C)(C)COC1(O)c1cccc(Cl)c1` [(S,S)-Hydroxybupropion], the chemical recovery was found to be 5.72 ± 0.93% under setting [3], 36.3 ± 2.2% under setting [1] and 59.9 ± 3.2% under setting [2].
Consider `Nc1nc(NC2CC2)c2ncn([C@H]3C=C[C@@H](CO)C3)c2n1` [Abacavir], for which the chemical recovery under setting [2] was found to be 77 ± 3.4%.
Consider `c1cc2c3c(cccc3c1)CC2` [Acenaphthene], for which the chemical recovery by setting is: under setting [1], 9.53 ± 0.88%; under setting [4], 3.64 ± 1.1%.
Take `COP(=O)(NC(C)=O)SC` (centres undefined) [Acephate]: the chemical recovery was 3.58 ± 0.54% under setting [3] and 5.48 ± 5.2% under setting [1].
As to `CC(=O)Nc1ccccc1` [Acetanilide], the chemical recovery by setting is: under setting [3], 40.3 ± 9.3%; under setting [1], 42 ± 2.4%; under setting [2], 80.1 ± 3.5%.
`c1ccc2nc3ccccc3cc2c1` [Acridine]: the chemical recovery is, setting by setting: under setting [3], 39.7 ± 8%; under setting [1], 28.4 ± 1.4%; under setting [4], 51.6 ± 11%; under setting [2], 49.6 ± 2.4%.
`Nc1c(Br)cc(Br)cc1CN[C@H]1CC[C@H](O)CC1` [Ambroxol]: the chemical recovery by setting is: under setting [3], 5.97 ± 0.52%; under setting [1], 37.1 ± 7.2%; under setting [4], 29.4 ± 6.9%.
In the case of `CCN1CCCC1CNC(=O)c1cc(S(=O)(=O)CC)c(N)cc1OC` (centres undefined) [Amisulpride], the chemical recovery under setting [2] stood at 70.3 ± 3.4%.
On to `C[C@@]12CCC[C@H]1[C@@H]1CC[C@H]3C[C@@H](O)CC[C@]3(C)[C@H]1CC2` [Androstanol], for which the chemical recovery reads like this: under setting [1], 1.3 ± 0.4%; under setting [2], 44.7 ± 6%.
Consider `Nc1ccccc1` [Aniline], for which the chemical recovery by setting is: under setting [3], 4.94 ± 0.92%; under setting [1], 4.14 ± 2.7%.
As for `CC(C)(C)c1cc(Cn2c(=O)n(Cc3cc(C(C)(C)C)c(O)c(C(C)(C)C)c3)c(=O)n(Cc3cc(C(C)(C)C)c(O)c(C(C)(C)C)c3)c2=O)cc(C(C)(C)C)c1O` [Antioxidant-3114], the chemical recovery under setting [1] was determined as 5.69 ± 2.6% and the chemical recovery under setting [2] was 58.4 ± 13%.
Take `CC(C)NCC(O)COc1ccc(CC(N)=O)cc1` (centres undefined) [Atenolol]: the chemical recovery under setting [3] worked out at 17.1 ± 4.2%, the chemical recovery under setting [1] is 14 ± 6.1% and the chemical recovery under setting [2] was found to be 76 ± 2.5%.
On to `CC(C)c1c(C(=O)Nc2ccccc2)c(-c2ccccc2)c(-c2ccc(F)cc2)n1CC[C@@H](O)C[C@@H](O)CC(=O)O` [Atorvastatin], for which the chemical recovery stood at 32.2 ± 9.6% under setting [3], 30.1 ± 3.9% under setting [1], 41.1 ± 8.4% under setting [4] and 61.7 ± 3% under setting [2].
Under setting [1], `COc1ccc(C(=O)CC(=O)c2ccc(C(C)(C)C)cc2)cc1` [Avobenzone] had a chemical recovery of 8.77 ± 0.79%.
The same measure, in the same setting: to `O=C(O)CCCCCCCC(=O)O` [Azelaic-acid] belongs 53.1 ± 4%.
The compound `Brc1cc(Br)c(Oc2c(Br)cc(Br)c(Br)c2Br)cc1Br` [BDE183] gave a chemical recovery under setting [3] of 5.01 ± 7.1%.
Turning to `CCN(CCO)c1ccc(/N=N/c2sc3cc(OC)ccc3[n+]2C)cc1` [Basic-Blue-41], the chemical recovery under setting [2] is 18.5 ± 1.6%.
Turning to `CC(C)N1C(=O)c2ccccc2N(C)S1(=O)=O` [Bentazone-methyl], the chemical recovery by setting is: under setting [3], 53.5 ± 11%; under setting [1], 28.9 ± 1.5%; under setting [2], 46.3 ± 5.3%.
The like results for `c1ccc2[nH]cnc2c1` [Benzimidazole] were, in that order, 16.9 ± 4.1%, 4.01 ± 3.3% and 72 ± 2.6%.
On to `c1ccc2c(c1)ccc1sc3ccccc3c12` [Benzo[b]naphtho(1,2-d)thiophene], for which the chemical recovery came to 0.745 ± 0.2% under setting [1] and 20.4 ± 2.6% under setting [2].
Consider `c1ccc2cc3c(cc2c1)sc1ccccc13` [Benzo[b]naphtho(2,3-d)thiophene], for which the chemical recovery runs as follows: under setting [3], 61.7 ± 20%; under setting [1], 0.871 ± 0.26%; under setting [2], 63.3 ± 6.8%.
As for `O=C(OCc1ccccc1)c1ccccc1O` [Benzyl salicylate], the chemical recovery reads like this: under setting [1], 1.14 ± 0.085%; under setting [2], 26.5 ± 2.6%.
The like results for `c1ccc(COc2ccc3ccccc3c2)cc1` [Benzyl-2-naphthylether] were, in that order, 0.473 ± 0.12% and 24.2 ± 0.93%.
Regarding `CCCCCCCCCC[N+](C)(C)Cc1ccccc1` [Benzyldimethyldecylammonium], the chemical recovery under setting [2] was found to be 66.1 ± 3.3%.
`CCCCCCCCCCCCCCCC[N+](C)(C)Cc1ccccc1` [Benzyldimethylhexadecylammonium]: the chemical recovery under setting [2] is 63.9 ± 7.4%.
With `C[N+](C)(C)Cc1ccccc1` [Benzyltrimethylammonium], the chemical recovery came out at 3.88 ± 2.8% under setting [1] and 75.8 ± 2.6% under setting [2].
The like results for `Cc1c(COC(=O)C2C(/C=C(\Cl)C(F)(F)F)C2(C)C)cccc1-c1ccccc1` (centres undefined) [Bifenthrin] were, in that order, 0.536 ± 0.24% and 18.9 ± 3.9%.
In the case of `CCCCC(CC)COP(=O)(O)OCC(CC)CCCC` (centres undefined) [Bis(2-ethylhexyl)phosphate], the chemical recovery worked out at 16.4 ± 4.5% under setting [3], 20.3 ± 2.5% under setting [1], 3.88 ± 1.6% under setting [4] and 52.8 ± 4.3% under setting [2].
For `CCCCCC(CCC)COC(=O)c1ccccc1C(=O)OCC(CCC)CCCCC` (centres undefined) [Bis(2-propylheptyl)-phthalate], under setting [2], the chemical recovery was determined as 70.9 ± 7.4%.
The same measure, in the same setting: to `CC1CC(CC2CCC(N)C(C)C2)CCC1N` (centres undefined) [Bis(4-amino-3-methylcyclohexyl)methane] belongs 41.1 ± 7.7%.
In the case of `Oc1ccc(C(c2ccc(O)cc2)(C(F)(F)F)C(F)(F)F)cc1` [Bisphenol-AF], the chemical recovery worked out at 86.8 ± 4.4% under setting [3], 51.2 ± 7.6% under setting [1] and 41.6 ± 2.4% under setting [2].
Turning to `CC(C)(c1ccc(O)cc1)c1ccc(O)cc1` [Bisphenol-A], the chemical recovery is 69.8 ± 4.4% under setting [3] and 45.4 ± 3.8% under setting [1].
In the case of `Oc1ccc(C(c2ccccc2)(c2ccccc2)c2ccc(O)cc2)cc1` [Bisphenol-BP], the chemical recovery reads like this: under setting [1], 40.9 ± 7.5%; under setting [2], 35.1 ± 3.6%.
Consider `CCC(C)(c1ccc(O)cc1)c1ccc(O)cc1` [Bisphenol-B], for which the chemical recovery came to 63.4 ± 2% under setting [3], 45.4 ± 1.4% under setting [1] and 49.7 ± 3.2% under setting [2].
The like results for `Cc1cc(C(C)(C)c2ccc(O)c(C)c2)ccc1O` [Bisphenol-C] were, in that order, 52.7 ± 2.9%, 34.5 ± 4.8% and 39.4 ± 2.5%.
The like results for `CC(c1ccc(O)cc1)c1ccc(O)cc1` [Bisphenol-E] were, in that order, 62.3 ± 2.5%, 51 ± 4% and 63.7 ± 3.1%.
For the compound `Oc1ccc(C2(c3ccc(O)cc3)c3ccccc3-c3ccccc32)cc1` [Bisphenol-FL], the chemical recovery runs as follows: under setting [1], 34.3 ± 5.9%; under setting [2], 26.8 ± 4.5%.
`Oc1ccc(Cc2ccc(O)cc2)cc1` [Bisphenol-F]: the chemical recovery under setting [3] came out at 70.2 ± 3.4%, the chemical recovery under setting [1] was found to be 56 ± 2.6% and the chemical recovery under setting [2] was determined as 72.6 ± 3.6%.
Turning to `CC(C)c1cc(C(C)(C)c2ccc(O)c(C(C)C)c2)ccc1O` [Bisphenol-G], the chemical recovery turned out to be 8.379 ± 0.058% under setting [1] and 39.5 ± 3.7% under setting [2].
Regarding `CC(C)(c1ccc(O)c(-c2ccccc2)c1)c1ccc(O)c(-c2ccccc2)c1` [Bisphenol-PH], the chemical recovery was determined as 64.8 ± 12% under setting [3], 26.7 ± 7% under setting [1] and 38 ± 5% under setting [2].
The like results for `CCC(C)n1c(=O)[nH]c(C)c(Br)c1=O` (centres undefined) [Bromacil] were, in that order, 64.5 ± 4.7%, 49.3 ± 3% and 72.7 ± 2.8%.
Take `CC(NC(C)(C)C)C(=O)c1cccc(Cl)c1` (centres undefined) [Bupropion]: the chemical recovery by setting is: under setting [3], 0.191 ± 0.047%; under setting [1], 37.7 ± 3.8%; under setting [4], 38.7 ± 8.2%; under setting [2], 23.5 ± 3.1%.
Take `CNC(=O)ON=C(C)C(C)SC` (centres undefined) [Butocarboxim]: under setting [4], the chemical recovery was determined as 46.4 ± 8.7%.
Take `Oc1ccc2c(c1)[C@@]13CCCC[C@@]1(O)[C@@H](C2)N(CC1CCC1)CC3` [Butorphanol]: the chemical recovery was 34.7 ± 9.8% under setting [1] and 65.5 ± 6.6% under setting [2].
Turning to `CCCCOC(=O)c1ccc(O)cc1` [Butylparaben], the chemical recovery under setting [3] was determined as 51.3 ± 3.1%, the chemical recovery under setting [1] came to 37.5 ± 1.3% and the chemical recovery under setting [2] was found to be 64.9 ± 1.9%.
The like results for `CNC(=O)Oc1cccc2c1OC(C)(C)C2` [Carbofuran] were, in that order, 41.4 ± 4.8%, 43.6 ± 1.7% and 47.2 ± 7%.
The like results for `c1ccc2c(c1)[nH]c1ncccc12` [Carboline] were, in that order, 28 ± 5.2%, 40.3 ± 2.9% and 72.2 ± 3.8%.
For the compound `Nc1nc2c(ncn2COCC(=O)O)c(=O)[nH]1` [Carboxy-aciclovir], under setting [1], the chemical recovery is 1.5 ± 1.3%.
Consider `CCCC(C)(COC(N)=O)COC(=O)NC(C)C` (centres undefined) [Carisoprodol], for which, under setting [2], the chemical recovery came out at 78.1 ± 5.9%.
In the case of `C[C@H](CCC(=O)O)[C@H]1CC[C@H]2[C@@H]3[C@H](O)C[C@@H]4C[C@H](O)CC[C@]4(C)[C@H]3CC[C@]12C` [Chenodeoxycholic-acid], the chemical recovery under setting [1] stood at 37.4 ± 7.9% and the chemical recovery under setting [2] amounted to 74.9 ± 4.7%.
Take `CNC(=O)c1cc(Cl)cc(C)c1NC(=O)c1cc(Br)nn1-c1ncccc1Cl` [Chlorantraniliprole]: the chemical recovery under setting [3] was 66.7 ± 5.2%, the chemical recovery under setting [1] was 49.5 ± 2.3% and the chemical recovery under setting [2] came to 75.5 ± 1.2%.
The like results for `Cc1cc(Cl)ccc1/N=C/N(C)C` [Chlordimeform] were, in that order, 28.8 ± 4.5%, 24.7 ± 4.2% and 30.1 ± 3.3%.
The like results for `O=C(O)C1C(C(=O)O)C2(Cl)C(Cl)=C(Cl)C1(Cl)C2(Cl)Cl` (centres undefined) [Chlorendic-acid] were, in that order, 27 ± 6.5%, 23.9 ± 3.7% and 28.2 ± 7.5%.
`C[N+](C)(C)CCCl` [Chlormequat]: the chemical recovery reads like this: under setting [3], 0.51 ± 0.024%; under setting [1], 0.778 ± 0.52%; under setting [4], 10.2 ± 8.2%; under setting [2], 85 ± 12%.
